From PubChem BioAssay AID1259408 (Genetic Toxicology Data Bank (GENE-TOX), 2018)
Active and inactive are the calls of the source. The rule behind the calls is not given here.

Tested on: GENE-TOX genotoxicity assays, various organisms and cells
Assay: GENE-TOX mutagenicity studies
Conditions: for call: Assay Type: In vivo carcinogenicity studies
[1] = Species/Cell Type: Human lymphocytes, Assay Type: Sister-chromatid exchange (SCE) in vitro, Assay Code: SCLT, Evaluation Type: Evaluation B (Post-1980)
[2] = Species/Cell Type: Human, Assay Type: Sister-chromatid exchange (SCE) in vitro, Assay Code: SC1T, Evaluation Type: Evaluation B (Post-1980)
[3] = Species/Cell Type: Rodents, Sex: Male, Assay Type: Dominant lethal test, Assay Code: DLTT, Evaluation Type: Evaluation A (Pre-1980)
[4] = Species/Cell Type: Salmonella typhimurium (one or more of the five standard strains: TA98, TA100, TA1535, TA1537, and TA1538), Assay Type: Histidine reverse gene mutation, Ames assay, Assay Code: SAL+, Evaluation Type: Evaluation A (Pre-1980)
[5] = Species/Cell Type: Nonhuman, Assay Code: CCG+, Evaluation Type: Evaluation A (Pre-1980)
[6] = Species/Cell Type: Salmonella typhimurium (one or more of the five standard strains: TA98, TA100, TA1535, TA1537, and TA1538), Assay Type: Histidine reverse gene mutation, Ames assay, Assay Code: SAL-, Evaluation Type: Evaluation A (Pre-1980)
[7] = Species/Cell Type: Bacillus subtilis (H17 vs M45T), Assay Type: Rec-assay, spot test, DNA effects (bacterial DNA repair), Assay Code: REXT, Evaluation Type: Evaluation A (Pre-1980)
[8] = Species/Cell Type: Human lymphocytes, Assay Type: Sister-chromatid exchange (SCE) in vitro, Assay Code: SCL+D, Dose Response: With dose response, Evaluation Type: Evaluation B (Post-1980)
[9] = Species/Cell Type: Human, Assay Type: Sister-chromatid exchange (SCE) in vitro, Assay Code: SC1+D, Dose Response: With dose response, Evaluation Type: Evaluation B (Post-1980)
[10] = Species/Cell Type: Neurospora crassa, Assay Type: Reverse gene mutation, Assay Code: NER+, Evaluation Type: Evaluation A (Pre-1980)
[11] = Species/Cell Type: Drosophila melanogaster, Assay Type: Sex-linked recessive lethal gene mutation, Assay Code: SRLT, Evaluation Type: Evaluation A (Pre-1980)
[12] = Species/Cell Type: Nonhuman, Assay Type: Sister-chromatid exchange (SCE) in vivo, Assay Code: SC3+, Evaluation Type: Evaluation B (Post-1980)

In the case of `Cn1cnc([N+](=O)[O-])c1Sc1ncnc2nc[nH]c12`, the mutagenic call (Species/Cell Type: Drosophila melanogaster, Assay Type: Aneuploidy, partial sex chromosome loss, chromosome aberrations, Assay Code: DAP+M, Evaluation Type: Evaluation A (Pre-1980)) was “active; positive”, the mutagenic call (Species/Cell Type: Drosophila melanogaster, Assay Type: Aneuploidy, sex chromosome gain, chromosome aberrations, Assay Code: DAG+M, Evaluation Type: Evaluation A (Pre-1980)) was “active; positive” and the mutagenic call (Species/Cell Type: Drosophila melanogaster, Assay Type: Aneuploidy, whole sex chromosome loss, chromosome aberrations, Assay Code: DACT, Evaluation Type: Evaluation A (Pre-1980)) was “no conclusion”. The mutagenic call [1] was “no conclusion”, the mutagenic call (Species/Cell Type: Human lymphocytes, Assay Type: Sister-chromatid exchange (SCE) in vivo, Assay Code: SCY+, Evaluation Type: Evaluation B (Post-1980)) was “active; positive” and the mutagenic call [2] was “no conclusion”. For the same compound, the mutagenic call (Species/Cell Type: Mammalian polychromatic erythrocytes, Assay Type: Micronucleus test, chromosome aberrations, Assay Code: MNT+, Evaluation Type: Evaluation A (Pre-1980)) was “active; positive”, the mutagenic call (Species/Cell Type: Mouse, Sex: Male, Assay Type: Sperm morphology, Assay Code: SPI+, Evaluation Type: Evaluation A (Pre-1980)) was “active; positive” and the mutagenic call (Species/Cell Type: Neurospora crassa, Assay Type: Forward and reverse gene mutation, lethal mutation, host-mediated assay, Assay Code: HMD+, Evaluation Type: Evaluation A (Pre-1980)) was “active; positive”. The mutagenic call (Species/Cell Type: Neurospora crassa, Assay Type: Forward gene mutation, Assay Code: NEF+, Evaluation Type: Evaluation A (Pre-1980)) was “active; positive”, the call (Species/Cell Type: Nonhuman, Assay Code: CCG+L, Evaluation Type: Evaluation A (Pre-1980)) was “active; positive” and the mutagenic call (Species/Cell Type: Nonhuman, Assay Type: Sister-chromatid exchange (SCE) in vivo, Assay Code: SC3-, Evaluation Type: Evaluation B (Post-1980)) was “inactive; negative”. The mutagenic call [3] was “no conclusion” and the mutagenic call [4] was “active; positive”.
`CC(CO)OS(C)(=O)=O` (stereo unspecified) was tested, and the mutagenic call (Species/Cell Type: Hordeum vulgare (barley), Assay Type: Chromosome aberrations, Assay Code: HOC+D, Dose Response: With dose response, Evaluation Type: Evaluation A (Pre-1980)) was “active; positive”.
With `[O]=[W](=[O])([OH])[OH]` the mutagenic call [1] was “no conclusion” and the mutagenic call [2] was “no conclusion”.
With `O=C(CCCN1CCC(O)(c2ccc(Cl)cc2)CC1)c1ccc(F)cc1` the mutagenic call (Species/Cell Type: Allium cepa, Assay Type: Chromosome aberrations, Assay Code: ALC+D, Dose Response: With dose response, Evaluation Type: Evaluation A (Pre-1980)) was “active; positive” and the mutagenic call [2] was “no conclusion”.
With `Cc1cc(C)c(C)c(OC(=O)N(C)N=O)c1` the mutagenic call [4] was “active; positive”.
In the case of `O=c1[nH]cnc2nc[nH]c12`, the mutagenic call (Species/Cell Type: Allium cepa, Assay Type: Chromosome aberrations, Assay Code: ALC-, Evaluation Type: Evaluation A (Pre-1980)) was “inactive; negative”, the mutagenic call (Species/Cell Type: Arabidopsis species, Assay Type: Gene mutation, Assay Code: ARM-, Evaluation Type: Evaluation A (Pre-1980)) was “inactive; negative” and the mutagenic call (Species/Cell Type: Nonhuman, Assay Type: Sister-chromatid exchange (SCE) in vitro, Assay Code: SC2T, Evaluation Type: Evaluation B (Post-1980)) was “no conclusion”.
With `C1COCCO1` the call [5] was “active; positive” and the mutagenic call (Species/Cell Type: Syrian hamster embryo (SA7/SHE) cells, Assay Type: Cell transformation, viral enhanced, Assay Code: CT7-, Evaluation Type: Evaluation A (Pre-1980)) was “inactive; negative”.
For `CN(C)c1ccc(-c2ccc(N(C)C)cc2)cc1`, the mutagenic call [6] was “inactive; negative”.
`CN(C)c1ccc(N=Nc2ccc(S(=O)(=O)O)cc2)cc1` was tested, and the mutagenic call [7] was “no conclusion”, the mutagenic call (Species/Cell Type: Mammalian polychromatic erythrocytes, Assay Type: Micronucleus test, chromosome aberrations, Assay Code: MNTT, Evaluation Type: Evaluation A (Pre-1980)) was “no conclusion” and the mutagenic call (Species/Cell Type: Mouse, Sex: Male, Assay Type: Sperm morphology, Assay Code: SPI-, Evaluation Type: Evaluation A (Pre-1980)) was “inactive; negative”. For the same compound, the mutagenic call (Species/Cell Type: Nonhuman, Assay Type: Sister-chromatid exchange (SCE) in vitro, Assay Code: SC2+, Evaluation Type: Evaluation B (Post-1980)) was “active; positive” and the mutagenic call [6] was “inactive; negative”.
With `NCC(O)CCl` (stereo unspecified) the mutagenic call (Species/Cell Type: Rodents, Sex: Male, Assay Type: Dominant lethal test, Assay Code: DLT-, Evaluation Type: Evaluation A (Pre-1980)) was “inactive; negative”.
With `CC(=O)[O-].CC(=O)[O-].[OH-].[OH-].[OH-].[OH-].[Pb+2].[Pb+2].[Pb+2]` the call [5] was “active; positive” and the mutagenic call [3] was “no conclusion”.
`O=P1(N(CCCl)CCCl)NC(OO)CCO1` (stereo unspecified) was tested, and the mutagenic call [8] was “active; positive” and the mutagenic call [9] was “active; positive”.
In the case of `O=C=Nc1ccc2ccccc2c1`, the mutagenic call (Species/Cell Type: Nonhuman, Assay Type: Sister-chromatid exchange (SCE) in vitro, Assay Code: SC2+D, Dose Response: With dose response, Evaluation Type: Evaluation B (Post-1980)) was “active; positive”.
For `c1cc2ccc3ccc(C4CO4)c4ccc(c1)c2c34` (stereo unspecified), the mutagenic call [4] was “active; positive”.
In the case of `NC(=S)Nc1cccc2ccccc12`, the call (Species/Cell Type: Nonhuman, Assay Code: CCGT, Evaluation Type: Evaluation A (Pre-1980)) was “no conclusion” and the mutagenic call (Species/Cell Type: Syrian hamster embryo (SHE) cells, Assay Type: Cell transformation, clonal assay, Assay Code: CTC+, Evaluation Type: Evaluation A (Pre-1980)) was “active; positive”.
In the case of `CC(C)(C)OO`, the mutagenic call [10] was “active; positive”, the mutagenic call (Species/Cell Type: Saccharomyces cerevisiae, Assay Type: Mitotic recombination or gene conversion, Assay Code: YEC+, Evaluation Type: Evaluation A (Pre-1980)) was “active; positive” and the mutagenic call (Species/Cell Type: Vicia faba, Assay Type: Chromosome aberrations, Assay Code: VIC+, Evaluation Type: Evaluation A (Pre-1980)) was “active; positive”.
For `COC(C)[C@](O)(C(=O)O)C(C)C` (stereo partly specified), the mutagenic call [11] was “no conclusion”.
`CN(C)c1ccc(C(=C2C=CC(=[N+](C)C)C=C2)c2ccc(N(C)C)cc2)cc1` was tested, and the mutagenic call (Species/Cell Type: Bacillus subtilis (H17 vs M45), Assay Type: Rec-assay, spot test, DNA effects (bacterial DNA repair), Assay Code: REW+, Evaluation Type: Evaluation A (Pre-1980)) was “active; positive”, the mutagenic call [7] was “no conclusion” and the mutagenic call [11] was “no conclusion”. For the same compound, the mutagenic call (Species/Cell Type: Saccharomyces cerevisiae, Assay Type: Mitotic recombination or gene conversion, Assay Code: YEH-, Evaluation Type: Evaluation A (Pre-1980)) was “inactive; negative” and the mutagenic call (Species/Cell Type: Salmonella typhimurium (one or more of the five standard strains: TA98, TA100, TA1535, TA1537, and TA1538), Assay Type: Histidine reverse gene mutation, Ames assay, Assay Code: SALT, Evaluation Type: Evaluation A (Pre-1980)) was “no conclusion”.
`Cc1c2ccccc2cc2c3c(ccc12)C(O)C(O)C=C3` (stereo unspecified) was tested, and the mutagenic call (Species/Cell Type: Mouse prostate cells, Assay Type: Cell transformation, Assay Code: CTM+, Evaluation Type: Evaluation A (Pre-1980)) was “active; positive”, the mutagenic call (Species/Cell Type: Nonhuman, Assay Type: Sister-chromatid exchange (SCE) in vitro, Assay Code: SC2+D, Dose Response: With dose response, Evaluation Type: Evaluation A (Pre-1980)) was “active; positive” and the mutagenic call (Species/Cell Type: Salmonella typhimurium (one or more of the five standard strains: TA98, TA100, TA1535, TA1537, and TA1538), Assay Type: Histidine reverse gene mutation, Ames assay, Assay Code: SAL+*, Activation: With metabolic activation, Evaluation Type: Evaluation A (Pre-1980)) was “active; positive”.
In the case of `O=C(CCNNC(=O)c1ccncc1)NCc1ccccc1`, the mutagenic call [12] was “active; positive” and the mutagenic call [4] was “active; positive”.
`CCN(Cc1cccc(S(=O)(=O)[O-])c1)c1ccc(C(=C2C=CC(=[N+](C)C)C=C2)c2ccc(N(CC)Cc3cccc(S(=O)(=O)O)c3)cc2)cc1` was tested, and the mutagenic call (Species/Cell Type: Bacillus subtilis (H17 vs M45), Assay Type: Rec-assay, spot test, DNA effects (bacterial DNA repair), Assay Code: REWT, Evaluation Type: Evaluation A (Pre-1980)) was “no conclusion”, the mutagenic call [7] was “no conclusion” and the call [5] was “active; positive”. The mutagenic call [6] was “inactive; negative”.
`Cn1c(N)nc2c3cccnc3ccc21` was tested, and the mutagenic call (Species/Cell Type: Chinese hamster ovary (CHO) cells, Assay Type: Forward gene mutation at the HPRT locus, Assay Code: CHOT, Evaluation Type: Evaluation B (Post-1980)) was “no conclusion”, the mutagenic call (Species/Cell Type: Mammalian polychromatic erythrocytes, Assay Type: Micronucleus test, chromosome aberrations, Assay Code: MNT-, Evaluation Type: Evaluation B (Post-1980)) was “inactive; negative” and the mutagenic call (Species/Cell Type: Nonhuman, Assay Type: Sister-chromatid exchange (SCE) in vitro, Assay Code: SC2+D*, Activation: With metabolic activation, Dose Response: With dose response, Evaluation Type: Evaluation B (Post-1980)) was “active; positive”. The mutagenic call [12] was “active; positive”.
In the case of `OCC1CO1` (stereo unspecified), the mutagenic call (Species/Cell Type: Escherichia coli polA (W3119 vs P3478), Assay Type: Rec-assay, DNA effects (bacterial DNA repair), Assay Code: RE1+, Evaluation Type: Evaluation A (Pre-1980)) was “active; positive”, the mutagenic call (Species/Cell Type: Human diploid fibroblasts, Assay Type: Unscheduled DNA synthesis (UDS) in vitro, DNA effects, Assay Code: UDH-, Evaluation Type: Evaluation A (Pre-1980)) was “inactive; negative” and the mutagenic call [8] was “active; positive”. The mutagenic call [9] was “active; positive”, the mutagenic call [10] was “active; positive” and the mutagenic call (Species/Cell Type: Saccharomyces cerevisiae, Assay Type: Mitotic recombination or gene conversion, Assay Code: YEH+, Evaluation Type: Evaluation A (Pre-1980)) was “active; positive”. For the same compound, the mutagenic call [4] was “active; positive”, the mutagenic call (Species/Cell Type: Schizosaccharomyces pombe, Assay Type: Reverse gene mutation, Assay Code: YEZ+, Evaluation Type: Evaluation A (Pre-1980)) was “active; positive” and the mutagenic call (Species/Cell Type: Syrian hamster embryo (SHE) cells, Assay Type: Cell transformation, clonal assay, Assay Code: CTCT, Evaluation Type: Evaluation A (Pre-1980)) was “no conclusion”.
